US20260184710A1, “CASITAS B-LINEAGE LYMPHOMA PROTOONCOGENE B (CBL-B) DEGRADING COMPOUNDS AND ASSOCIATED METHODS OF USE” (Arvinas Operations, Inc., priority 2022, published 2026)

Biological target: T1, Cbl-b (Homo sapiens, UniProt Q13191)
T1 construct: Cbl-b-HiBit KI Jurkat Cells were purchased from Promega; host or cells: Cbl-b-HiBiT knock-in Jurkat cells
Test: Cbl-b Degradation Method B (Nano-Glo HiBiT lytic detection)
Assay type: cell-based
Conditions: Cbl-b-HiBit KI Jurkat Cells, incubated at least 6-24 hours; half maximal degradation; read-out: Cbl-b Degredation Method B IC50
In short: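 Cbl-b-HiBiT knock-in Jurkat cells (20,000/well) were treated after ~24 h plating with an 11-point 1:3 series for 6-24 h at 37° C. Remaining Cbl-b measured by Nano-Glo HiBiT lytic luminescence. DC50 and Dmax expressed as % of control.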

T1 sequence (Q13191 whole entry): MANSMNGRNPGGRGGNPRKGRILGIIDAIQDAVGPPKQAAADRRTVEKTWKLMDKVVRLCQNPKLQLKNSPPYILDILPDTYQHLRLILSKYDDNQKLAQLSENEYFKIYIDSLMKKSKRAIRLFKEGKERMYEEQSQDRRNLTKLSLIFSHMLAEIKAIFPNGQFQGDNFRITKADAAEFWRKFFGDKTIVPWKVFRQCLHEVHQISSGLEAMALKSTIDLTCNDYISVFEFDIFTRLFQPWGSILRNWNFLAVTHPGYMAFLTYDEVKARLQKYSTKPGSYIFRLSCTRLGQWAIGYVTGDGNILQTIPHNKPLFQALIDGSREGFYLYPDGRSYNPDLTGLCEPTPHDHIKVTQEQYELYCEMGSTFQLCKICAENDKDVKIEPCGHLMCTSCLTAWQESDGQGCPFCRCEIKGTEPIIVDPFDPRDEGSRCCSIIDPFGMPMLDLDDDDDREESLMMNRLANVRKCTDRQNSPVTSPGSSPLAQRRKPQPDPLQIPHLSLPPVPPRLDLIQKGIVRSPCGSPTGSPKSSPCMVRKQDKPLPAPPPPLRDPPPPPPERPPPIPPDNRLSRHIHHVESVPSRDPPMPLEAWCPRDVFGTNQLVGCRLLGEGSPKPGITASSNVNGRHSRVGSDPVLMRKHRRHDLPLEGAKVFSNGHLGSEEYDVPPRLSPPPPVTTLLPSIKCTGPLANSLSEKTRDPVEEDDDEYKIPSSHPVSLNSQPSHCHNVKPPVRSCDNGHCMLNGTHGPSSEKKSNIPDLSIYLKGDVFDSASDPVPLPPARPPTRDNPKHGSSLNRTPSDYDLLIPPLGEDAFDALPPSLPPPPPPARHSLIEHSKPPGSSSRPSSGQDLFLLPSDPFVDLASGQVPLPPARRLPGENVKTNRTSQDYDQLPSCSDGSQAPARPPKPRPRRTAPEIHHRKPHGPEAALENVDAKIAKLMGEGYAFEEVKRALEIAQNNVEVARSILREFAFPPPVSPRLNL

Row | SMILES | DC50 [µM]
1 | Cn1cnnc1CC1(c2cccc(N3Cc4c(cc(CN5CCC(Cn6cccc(CN7CCC(=O)NC7=O)c6=O)CC5)cc4C(F)(F)F)C3=O)c2)COC1 [Example 55, 1-({1-[(1-{[2-(3-{3-[(4-methyl-4H-1,2,4-triazol-3-yl)methyl]oxetan-3-yl}phenyl)-3-oxo-7-(trifluoromethyl)-2,3-dihydro-1H-isoindol-5-yl]methyl}piperidin-4-yl)methyl]-2-oxo-1,2-dihydropyridin-3-yl}methyl)-1,3-diazinane-2,4-dione] | > 0.5
2 | COc1ccc(N2CCC(CN3CCN(Cc4cc5c(c(C(F)(F)F)c4)CN(c4cccc(C6(Cc7nncn7C)COC6)c4)C5=O)CC3)CC2)cc1C(=O)NC1CCC(=O)NC1=O (stereo not drawn) [Example 56, N-(2,6-dioxopiperidin-3-yl)-2-methoxy-5-{4-[(4-{[2-(3-{3-[(4-methyl-4H-1,2,4-triazol-3-yl)methyl]oxetan-3-yl}phenyl)-3-oxo-7-(trifluoromethyl)-2,3-dihydro-1H-isoindol-5-yl]methyl}piperazin-1-yl)methyl]piperidin-1-yl}benzamide] | > 0.5
3 | Cn1cnnc1CC1(c2cccc(N3Cc4c(cc(CN5CCN(CC6CCN(c7ccc(N8CCC(=O)NC8=O)c(F)c7)CC6)CC5)cc4C(F)(F)F)C3=O)c2)COC1 [Example 57, 1-(2-fluoro-4-{4-[(4-{[2-(3-{3-[(4-methyl-4H-1,2,4-triazol-3-yl)methyl]oxetan-3-yl}phenyl)-3-oxo-7-(trifluoromethyl)-2,3-dihydro-1H-isoindol-5-yl]methyl}piperazin-1-yl)methyl]piperidin-1-yl}phenyl)-1,3-diazinane-2,4-dione] | > 0.5
4 | Cn1cnnc1CC1(c2cccc(N3Cc4c(cc(CN5CC(CC6CN(c7ccc8c(c7)C(=O)N(C7CCC(=O)NC7=O)C8=O)C6)C5)cc4C(F)(F)F)C3=O)c2)COC1 (stereo not drawn) [Example 58, 2-(2,6-dioxopiperidin-3-yl)-5-{3-[(1-{[2-(3-{3-[(4-methyl-4H-1,2,4-triazol-3-yl)methyl]oxetan-3-yl}phenyl)-3-oxo-7-(trifluoromethyl)-2,3-dihydro-1H-isoindol-5-yl]methyl}azetidin-3-yl)methyl]azetidin-1-yl}-2,3-dihydro-1H-isoindole-1,3-dione] | > 0.5
5 | Cn1cnnc1CC1(c2cccc(N3Cc4c(cc(CN5CCC(C(C)(C)N6CCN(c7ccc8c(c7)C(=O)N(C7CCC(=O)NC7=O)C8=O)CC6)CC5)cc4C(F)(F)F)C3=O)c2)COC1 (stereo not drawn) [Example 59, 2-(2,6-dioxopiperidin-3-yl)-5-{4-[2-(1-{[2-(3-{3-[(4-methyl-4H-1,2,4-triazol-3-yl)methyl]oxetan-3-yl}phenyl)-3-oxo-7-(trifluoromethyl)-2,3-dihydro-1H-isoindol-5-yl]methyl}piperidin-4-yl)propan-2-yl]piperazin-1-yl}-2,3-dihydro-1H-isoindole-1,3-dione] | > 0.5
6 | Cn1cnnc1CC1(c2cccc(N3Cc4c(cc(CN5CCC(CN(C)[C@H]6C[C@H](Oc7ccc8c(c7)C(=O)N(C7CCC(=O)NC7=O)C8=O)C6)CC5)cc4C(F)(F)F)C3=O)c2)COC1 (stereo partly drawn) [Example 60, 2-(2,6-dioxopiperidin-3-yl)-5-[(1r,3r)-3-{methyl[(1-{[2-(3-{3-[(4-methyl-4H-1,2,4-triazol-3-yl)methyl]oxetan-3-yl}phenyl)-3-oxo-7-(trifluoromethyl)-2,3-dihydro-1H-isoindol-5-yl]methyl}piperidin-4-yl)methyl]amino}cyclobutoxy]-2,3-dihydro-1H-isoindole-1,3-dione] | > 0.5
7 | Cn1cnnc1CC1(c2cccc(N3Cc4c(cc(CN5CCN(CCN(C)[C@H]6C[C@H](Oc7ccc8c(c7)C(=O)N(C7CCC(=O)NC7=O)C8=O)C6)CC5)cc4C(F)(F)F)C3=O)c2)COC1 (stereo partly drawn) [Example 63, 2-(2,6-dioxopiperidin-3-yl)-5-[(1r,3r)-3-{methyl[2-(4-{[2-(3-{3-[(4-methyl-4H-1,2,4-triazol-3-yl)methyl]oxetan-3-yl}phenyl)-3-oxo-7-(trifluoromethyl)-2,3-dihydro-1H-isoindol-5-yl]methyl}piperazin-1-yl)ethyl]amino}cyclobutoxy]-2,3-dihydro-1H-isoindole-1,3-dione] | > 0.5

Results, then the molecule that gave them:

Row | DC50 [µM] | SMILES
8 | > 0.5 | Cn1cnnc1CC1(c2cccc(N3Cc4c(cc(CN5CCC(CCCN6CCN(c7ccc8c(c7)C(=O)N(C7CCC(=O)NC7=O)C8=O)CC6)CC5)cc4C(F)(F)F)C3=O)c2)COC1 (stereo not drawn) [Example 61, 2-(2,6-dioxopiperidin-3-yl)-5-{4-[3-(1-{[2-(3-{3-[(4-methyl-4H-1,2,4-triazol-3-yl)methyl]oxetan-3-yl}phenyl)-3-oxo-7-(trifluoromethyl)-2,3-dihydro-1H-isoindol-5-yl]methyl}piperidin-4-yl)propyl]piperazin-1-yl}-2,3-dihydro-1H-isoindole-1,3-dione]
9 | > 0.5 | Cn1cnnc1CC1(c2cccc(N3Cc4c(cc(CN5CCN(c6cc(N7CCN(c8ccc9c(c8)C(=O)N(C8CCC(=O)NC8=O)C9=O)CC7)ncn6)CC5)cc4C(F)(F)F)C3=O)c2)COC1 (stereo not drawn) [Example 62, 2-(2,6-dioxopiperidin-3-yl)-5-{4-[6-(4-{[2-(3-{3-[(4-methyl-4H-1,2,4-triazol-3-yl)methyl]oxetan-3-yl}phenyl)-3-oxo-7-(trifluoromethyl)-2,3-dihydro-1H-isoindol-5-yl]methyl}piperazin-1-yl)pyrimidin-4-yl]piperazin-1-yl}-2,3-dihydro-1H-isoindole-1,3-dione]
10 | > 0.5 | Cn1cnnc1CC1(c2cccc(N3Cc4c(cc(CN5CC(C6CN(c7ccc(Oc8ccc9c(c8)C(=O)N(C8CCC(=O)NC8=O)C9=O)cc7)C6)C5)cc4C(F)(F)F)C3=O)c2)COC1 (stereo not drawn) [Example 64, 2-(2,6-dioxopiperidin-3-yl)-5-[4-(1′-{[2-(3-{3-[(4-methyl-4H-1,2,4-triazol-3-yl)methyl]oxetan-3-yl}phenyl)-3-oxo-7-(trifluoromethyl)-2,3-dihydro-1H-isoindol-5-yl]methyl}-[3,3′-biazetidin]-1-yl)phenoxy]-2,3-dihydro-1H-isoindole-1,3-dione]
11 | > 0.5 | Cn1cnnc1CC1(c2cccc(N3Cc4c(cc(CN5CCC(CN6CCC7(CC6)CN(c6cccc8c6CN(C6CCC(=O)NC6=O)C8=O)C7)CC5)cc4C(F)(F)F)C3=O)c2)COC1 (stereo not drawn) [Example 65, 3-(4-{7-[(1-{[2-(3-{3-[(4-methyl-4H-1,2,4-triazol-3-yl)methyl]oxetan-3-yl}phenyl)-3-oxo-7-(trifluoromethyl)-2,3-dihydro-1H-isoindol-5-yl]methyl}piperidin-4-yl)methyl]-2,7-diazaspiro[3.5]nonan-2-yl}-1-oxo-2,3-dihydro-1H-isoindol-2-yl)piperidine-2,6-dione]
12 | > 0.5 | Cn1cnnc1CC1(c2cccc(N3Cc4c(cc(CN5CCC(CN6CC7(CCN(c8ccc9c(c8)CN(C8CCC(=O)NC8=O)C9=O)CC7)C6)CC5)cc4C(F)(F)F)C3=O)c2)COC1 (stereo not drawn) [Example 66, 3-(5-{2-[(1-{[2-(3-{3-[(4-methyl-4H-1,2,4-triazol-3-yl)methyl]oxetan-3-yl}phenyl)-3-oxo-7-(trifluoromethyl)-2,3-dihydro-1H-isoindol-5-yl]methyl}piperidin-4-yl)methyl]-2,7-diazaspiro[3.5]nonan-7-yl}-1-oxo-2,3-dihydro-1H-isoindol-2-yl)piperidine-2,6-dione]
